From patent US10538512B2, “Aminoacylindazole immunomodulators for treatment of autoimmune diseases” (The Rockefeller University, priority 2016, dated 2020)

How the values were obtained:
Human FXIIa = biological target: T1, Human FXIIa (Homo sapiens, UniProt P00748); test: Factor XIIa (FXIIa) inhibitory activity, chromogenic substrate assay; type: biochemical; conditions: Human FXIIa 12.5 nM, Pefachrome XIIa 400 μM, 10 min preincubation
T1 construct: active coagulation factor XII (FXIIa); purchased Enzyme Research Labs
T1 sequence (P00748 373-615 limits assumed): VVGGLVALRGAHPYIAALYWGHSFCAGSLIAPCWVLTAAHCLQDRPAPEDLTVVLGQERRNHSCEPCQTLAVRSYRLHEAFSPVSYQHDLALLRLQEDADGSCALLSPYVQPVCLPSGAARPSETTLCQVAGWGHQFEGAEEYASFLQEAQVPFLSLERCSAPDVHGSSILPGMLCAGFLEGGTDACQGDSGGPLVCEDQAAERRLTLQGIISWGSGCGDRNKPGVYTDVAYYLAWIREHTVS
T1 sequence (P00748 20-372 partner limits assumed): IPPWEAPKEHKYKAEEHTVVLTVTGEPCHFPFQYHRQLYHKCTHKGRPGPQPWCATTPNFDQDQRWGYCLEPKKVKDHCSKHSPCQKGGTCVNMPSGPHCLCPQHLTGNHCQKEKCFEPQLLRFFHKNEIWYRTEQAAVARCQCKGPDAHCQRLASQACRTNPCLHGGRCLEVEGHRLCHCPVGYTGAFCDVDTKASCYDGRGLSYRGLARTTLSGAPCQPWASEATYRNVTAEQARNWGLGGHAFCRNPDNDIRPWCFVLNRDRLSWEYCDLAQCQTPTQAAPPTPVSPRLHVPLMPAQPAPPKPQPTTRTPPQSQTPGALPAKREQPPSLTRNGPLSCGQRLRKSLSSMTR
In short: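 Buffer was 0.5× HBSS with 25 mM HEPES pH 7.4 and 0.5× TBS-Tween 0.05%. Enzyme and compound (about 1–100 μM) were preincubated 10 min at room temperature, then Pefachrome XIIa was added at 400 μM final. Substrate cleavage was followed as the rate of A405 change at 37 °C.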

Human alpha-thrombin = biological target: T2, Human alpha-thrombin (Homo sapiens, UniProt P00734); test: Thrombin counterscreen for selectivity, fluorogenic substrate assay; type: biochemical; conditions: Human alpha-thrombin 12.5 nM, Boc-Val-Pro-Arg-AMC 20 μM, 10 min preincubation
T2 construct: Human alpha-thrombin (Enzyme Research Labs); purchased Enzyme Research Labs
In short: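 Compounds, about 1–100 μM, preincubated 10 min at room temperature with enzyme, then Boc-Val-Pro-Arg-AMC added at 20 μM final.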

Compound `Nc1c2c(nn1C(=O)[C@H]1CCNc3ccccc31)CC[C@H](O)C2` (single isomer, unassigned) [Example 170, ((5S*)-3-amino-5-hydroxy-4,5,6,7-tetrahydroindazol-2-yl)((4S*)-1,2,3,4-tetrahydroquinolin-4-yl)methanone] has an IC50 (Human FXIIa) of 6 µM and an IC50 (Human alpha-thrombin) of over 150 µM.

For `Nc1nn(C(=O)c2ccnc3cc(Cl)ccc23)c2c1CCCC2` [Example 124, (3-amino-4,5,6,7-tetrahydro-2H-indazol-1-yl)(7-chloroquinolin-4-yl)methanone], the IC50 (Human FXIIa) was 60 µM and the IC50 (Human alpha-thrombin) was 60 µM.

With `Cc1sc2ccccc2c1C(=O)n1nc2c(c1N)CCCC2` (single isomer, unassigned) [Example 23, (3-Amino-4,5,6,7-tetrahydroindazol-2-yl)(2-methylbenzo[b]thiophen-3-yl)methanone] the IC50 (Human FXIIa) was 5 µM and the IC50 (Human alpha-thrombin) was over 100 µM.

`CCc1cscc1C(=O)n1nc(N)c2c1CCCC2` (single isomer, unassigned) [Example 12, (3-amino-4,5,6,7-tetrahydroindazol-1-yl)(4-ethylthiophen-3-yl)methanone] gave an IC50 (Human FXIIa) of over 50 µM and an IC50 (Human alpha-thrombin) of over 50 µM.

In the case of `Cc1cc2c(C(=O)n3nc4c(c3N)CC(O)CC4)cccc2[nH]1` (centres unmarked) [Example 161], the IC50 (Human FXIIa) is reported as 0.06 µM and the IC50 (Human alpha-thrombin) is reported as over 100 µM.

With `Nc1c2c(nn1C(=O)[C@H]1CCCc3[nH]c(Cl)cc31)CC[C@@H](O)C2` (single isomer, unassigned) [Example 126, ((5R*)-3-amino-5-hydroxy-4,5,6,7-tetrahydroindazol-2-yl)((4S*)-2-chloro-4,5,6,7-tetrahydro-1H-indol-4-yl)methanone] the IC50 (Human FXIIa) was 0.02 µM and the IC50 (Human alpha-thrombin) was 37 µM.

Work on `Nc1c2c(nn1C(=O)[C@H]1CCNc3c(Cl)cccc31)C[C@H](O)CC2` (single isomer, unassigned) [Example 209, ((6R*)-3-amino-6-hydroxy-4,5,6,7-tetrahydroindazol-2-yl)((4S*)-8-chloro-1,2,3,4-tetrahydroquinolin-4-yl)methanone] yielded an IC50 (Human FXIIa) of 0.04 µM and an IC50 (Human alpha-thrombin) of over 100 µM.

With `Cc1cccc2c1NCC[C@@H]2C(=O)n1nc2c(c1N)C[C@H](O)CC2` (single isomer, unassigned) [Example 218, ((5R*)-3-amino-5-hydroxy-4,5,6,7-tetrahydro-2H-indazol-2-yl)((4S*)-8-methyl-1,2,3,4-tetrahydroquinolin-4-yl)methanone] the IC50 (Human FXIIa) was 0.05 µM and the IC50 (Human alpha-thrombin) was over 90 µM.

Work on `CCc1ccccc1C(=O)n1nc2c(c1N)CCCC2` [Example 40, (3-amino-4,5,6,7-tetrahydroindazol-2-yl)(2-ethylphenyl)methanone] yielded an IC50 (Human FXIIa) of 15 µM and an IC50 (Human alpha-thrombin) of over 100 µM.

`CC(C)(C)c1cccc(C(=O)n2nc3c(c2N)CCCC3)c1` [Example 31, (3-amino-4,5,6,7-tetrahydroindazol-2-yl)(3-tert-butylphenyl)methanone] showed an IC50 (Human FXIIa) of 0.15 µM and an IC50 (Human alpha-thrombin) of over 50 µM.

With `Nc1c2c(nn1C(=O)c1coc3ccccc13)CCCC2` [Example 41, (3-amino-4,5,6,7-tetrahydroindazol-2-yl)(benzofuran-3-yl)methanone] the IC50 (Human FXIIa) was 1.2 µM and the IC50 (Human alpha-thrombin) was over 100 µM.

`CCN1CCC(C(=O)n2nc(N)c3c2CCCC3)c2ccccc21` (single isomer, unassigned) [Example 75, (3-amino-4,5,6,7-tetrahydroindazol-1-yl)(1-ethyl-1,2,3,4-tetrahydroquinolin-4-yl)methanone] gave an IC50 (Human FXIIa) of over 100 µM and an IC50 (Human alpha-thrombin) of over 100 µM.

Work on `Cc1cc2c(C(=O)n3nc(N)c4c3CCCC4)cccc2o1` (single isomer, unassigned) [Example 59, (3-amino-4,5,6,7-tetrahydroindazol-1-yl)(2-methylbenzofuran-4-yl)methanone] yielded an IC50 (Human FXIIa) of over 100 µM and an IC50 (Human alpha-thrombin) of over 100 µM.

`CCc1cc2c(C(=O)n3nc4c(c3N)CCCC4)cccc2[nH]1` [Example 50, (3-amino-4,5,6,7-tetrahydroindazol-2-yl)(2-ethyl-1H-indol-4-yl)methanone] gave an IC50 (Human FXIIa) of 0.01 µM and an IC50 (Human alpha-thrombin) of 25 µM.

`Nc1c2c(nn1C(=O)[C@H]1CCNc3ccc(F)cc31)CC[C@@H](O)C2` (single isomer, unassigned) [Example 129, ((5R*)-3-amino-5-hydroxy-4,5,6,7-tetrahydro-2H-indazol-2-yl)(4(S*)-6-fluoro-1,2,3,4-tetrahydroquinolin-4-yl)methanone] showed an IC50 (Human FXIIa) of 0.05 µM and an IC50 (Human alpha-thrombin) of over 150 µM.

`Nc1c2c(nn1C(=O)C1CCNc3ccc(F)cc31)CCC(F)(F)C2` (single isomer, unassigned) [Example 173, (S*)-(3-amino-5,5-difluoro-4,5,6,7-tetrahydroindazol-2-yl)(6-fluoro-1,2,3,4-tetrahydroquinolin-4-yl)methanone] gave an IC50 (Human FXIIa) of 0.1 µM and an IC50 (Human alpha-thrombin) of 30 µM.

Compound `Nc1c2c(nn1C(=O)c1cccc3[nH]c(Cl)cc13)CCCC2` (single isomer, unassigned) [Example 55, (3-amino-4,5,6,7-tetrahydroindazol-2-yl)(2-chloro-1H-indol-4-yl)methanone] has an IC50 (Human FXIIa) of 0.01 µM and an IC50 (Human alpha-thrombin) of 20 µM.

Compound `Cc1cc2c(o1)CCCC2C(=O)n1nc2c(c1N)CCCC2` (centres unmarked) [Example 85, (3-amino-4,5,6,7-tetrahydro-2H-indazol-2-yl)(2-methyl-4,5,6,7-tetrahydrobenzofuran-4-yl)methanone] has an IC50 (Human FXIIa) of 0.4 µM and an IC50 (Human alpha-thrombin) of 30 µM.

With `Nc1c2c(nn1C(=O)[C@H]1CCNc3ccc(Cl)cc31)CC[C@@H](O)C2` (single isomer, unassigned) [Example 148, ((5R*)-3-amino-5-hydroxy-4,5,6,7-tetrahydroindazol-2-yl)((4S*)-6-chloro-1,2,3,4-tetrahydroquinolin-4-yl)methanone] the IC50 (Human FXIIa) was 0.04 µM and the IC50 (Human alpha-thrombin) was over 80 µM.

For `Nc1nn(C(=O)c2cccc3[nH]ccc23)c2c1CCCC2` (single isomer, unassigned) [Example 2, (3-amino-4,5,6,7-tetrahydroindazol-1-yl)(1H-indol-4-yl)methanone], the IC50 (Human FXIIa) was over 50 µM and the IC50 (Human alpha-thrombin) was over 50 µM.

`Cc1nn(C(=O)c2cccc3[nH]ccc23)c2c1CCCC2` (single isomer, unassigned) [Example 4, (1H-indol-4-yl)(3-methyl-4,5,6,7-tetrahydroindazol-1-yl)methanone] showed an IC50 (Human FXIIa) of 65 µM and an IC50 (Human alpha-thrombin) of 45 µM.

For `Nc1c2c(nn1C(=O)C1CCCc3ccccc31)CCCC2` (single isomer, unassigned) [Example 5, (S*)-(3-Amino-4,5,6,7-tetrahydroindazol-2-yl)(1,2,3,4-tetrahydronaphthalen-1-yl)methanone], the IC50 (Human FXIIa) was 1.7 µM and the IC50 (Human alpha-thrombin) was over 50 µM.

`Nc1nn(C(=O)C2CCNc3ccccc32)c2ccccc12` (centres unmarked) [Example 77, (3-amino-1H-indazol-1-yl)(1,2,3,4-tetrahydroquinolin-4-yl)methanone] was tested, and the IC50 (Human FXIIa) was over 100 µM and the IC50 (Human alpha-thrombin) was over 100 µM.

`CO[C@H]1CCc2nn(C(=O)[C@H]3CCNc4ccc(F)cc43)c(N)c2C1` (single isomer, unassigned) [Example 177, ((5S*)-3-amino-5-methoxy-4,5,6,7-tetrahydroindazol-2-yl)((4S*)-6-fluoro-1,2,3,4-tetrahydroquinolin-4-yl)methanone] was tested, and the IC50 (Human FXIIa) was 2 µM and the IC50 (Human alpha-thrombin) was over 100 µM.

In the case of `CCn1c(C)c(C(=O)n2nc3c(c2N)CCCC3)c2ccccc21` [Example 45, (3-amino-4,5,6,7-tetrahydroindazol-2-yl)(1-ethyl-2-methyl-1H-indol-3-yl)methanone], the IC50 (Human FXIIa) is reported as 12 µM and the IC50 (Human alpha-thrombin) is reported as over 100 µM.

For `Cc1csc(C)c1C(=O)n1cc2c(n1)CCCC2` [Example 35, 2-[(2,4-dimethylthiophen-3-yl)carbonyl]-4,5,6,7-tetrahydro-2H-indazole], the IC50 (Human FXIIa) was over 100 µM and the IC50 (Human alpha-thrombin) was over 100 µM.

In the case of `Nc1c2c(nn1C(=O)c1cccc3c1ccn3-c1ccccc1)CCCC2` (single isomer, unassigned) [Example 20, (3-amino-4,5,6,7-tetrahydroindazol-2-yl)(1-phenyl-1H-indol-4-yl)methanone], the IC50 (Human FXIIa) is reported as 17.5 µM and the IC50 (Human alpha-thrombin) is reported as over 100 µM.

`CCc1csc(C)c1C(=O)n1nc(N)c2c1CCCC2` (single isomer, unassigned) [Example 19, (3-amino-4,5,6,7-tetrahydroindazol-1-yl)(4-ethyl-2-methylthiophen-3-yl)methanone] gave an IC50 (Human FXIIa) of over 100 µM and an IC50 (Human alpha-thrombin) of over 100 µM.

For `Nc1c2c(nn1C(=O)C1CCc3ccccc31)CCCC2` (centres unmarked) [Example 46, (3-amino-4,5,6,7-tetrahydroindazol-2-yl)(2,3-dihydro-1H-inden-1-yl)methanone], the IC50 (Human FXIIa) was 7.5 µM and the IC50 (Human alpha-thrombin) was over 50 µM.

`Cc1sc2ccccc2c1C(=O)n1nc(N)c2c1CCCC2` (single isomer, unassigned) [Example 24, (3-amino-4,5,6,7-tetrahydroindazol-1-yl)(2-methylbenzo[b]thiophen-3-yl)methanone] showed an IC50 (Human FXIIa) of over 100 µM and an IC50 (Human alpha-thrombin) of over 100 µM.

In the case of `CCc1csc(C)c1C(=O)n1nc2c(c1N)CCCC2` (single isomer, unassigned) [Example 18, (3-Amino-4,5,6,7-tetrahydroindazol-2-yl)(4-ethyl-2-methylthiophen-3-yl)methanone], the IC50 (Human FXIIa) is reported as 5 µM and the IC50 (Human alpha-thrombin) is reported as over 100 µM.
